Test results published in paper PMC4681651 (Neuropharmacology, 2015).
Where “and” joins values, the source holds several entries; their conditions need not be identical. Equal values may be shown once. Where a name gives a salt, the structure may show the parent alone. Read-outs that look alike come from different tables or passages of the source.

Columns and labels:
Sprague-Dawley rats [1] = experiment: Forced swim test; assay type: in vivo; conditions: rat, three doses, 300 sec test
[2] = tested on: opiate receptor binding sites labeled by [^3H]-naloxone; experiment: [3H]-naloxone binding competition assay in rat forebrain membranes
Sprague-Dawley rats [3] = experiment: Open field locomotor activity; assay type: in vivo; conditions: rat, 30 min after injection, 10 min test
[4] = tested on: 129SvEv;C57Bl/6J F1 hybrid mice; experiment: Marble burying; assay type: in vivo; conditions: mouse, 10 min before 15 min test
[5] = tested on: 129SvEv;C57Bl/6J F1 hybrid mice; experiment: Forced swim test; assay type: in vivo, mouse; conditions: 6 min test; for immobility time vs vehicle: mouse
Straub tail observation = assay type: in vivo; conditions: doses used in the behavioral studies
rat α3β4 nAChRs = conditions: 2001, cited from earlier work; for block of rat α3β4 nAChR channels: ref Xiao et al.
[6] = 100 mg/kg, sc; ref Pohland et al., 1971; cited from earlier work
Sprague-Dawley rats [7] = assay type: in vivo; conditions: rat
[8] = tested on: 129SvEv;C57Bl/6J F1 hybrid mice; experiment: Home cage locomotor activity; assay type: in vivo; conditions: mouse, 0.5, 1, 5, 10 mg/kg i.p., 60 min
human α3β4 nAChRs = human α3β4 nAChRs (Homo sapiens, UniProt P30926+P32297); experiment: 86Rb+ efflux assay, block of nicotine-stimulated channel function
Sequence of human α3β4 nAChRs (P32297 32-505): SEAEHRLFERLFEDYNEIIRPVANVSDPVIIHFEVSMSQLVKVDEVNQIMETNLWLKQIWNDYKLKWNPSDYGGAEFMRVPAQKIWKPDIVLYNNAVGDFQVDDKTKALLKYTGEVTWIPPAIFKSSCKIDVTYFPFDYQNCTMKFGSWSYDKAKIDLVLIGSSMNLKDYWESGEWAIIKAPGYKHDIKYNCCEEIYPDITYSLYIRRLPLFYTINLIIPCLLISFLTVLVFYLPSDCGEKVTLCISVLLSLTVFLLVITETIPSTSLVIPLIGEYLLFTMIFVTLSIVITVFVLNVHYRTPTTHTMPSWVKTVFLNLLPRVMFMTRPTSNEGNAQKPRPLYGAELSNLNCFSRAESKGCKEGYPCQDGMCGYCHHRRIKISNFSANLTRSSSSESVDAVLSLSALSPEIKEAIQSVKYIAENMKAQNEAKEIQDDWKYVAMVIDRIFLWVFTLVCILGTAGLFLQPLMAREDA
Sequence of human α3β4 nAChRs (P30926 22-498): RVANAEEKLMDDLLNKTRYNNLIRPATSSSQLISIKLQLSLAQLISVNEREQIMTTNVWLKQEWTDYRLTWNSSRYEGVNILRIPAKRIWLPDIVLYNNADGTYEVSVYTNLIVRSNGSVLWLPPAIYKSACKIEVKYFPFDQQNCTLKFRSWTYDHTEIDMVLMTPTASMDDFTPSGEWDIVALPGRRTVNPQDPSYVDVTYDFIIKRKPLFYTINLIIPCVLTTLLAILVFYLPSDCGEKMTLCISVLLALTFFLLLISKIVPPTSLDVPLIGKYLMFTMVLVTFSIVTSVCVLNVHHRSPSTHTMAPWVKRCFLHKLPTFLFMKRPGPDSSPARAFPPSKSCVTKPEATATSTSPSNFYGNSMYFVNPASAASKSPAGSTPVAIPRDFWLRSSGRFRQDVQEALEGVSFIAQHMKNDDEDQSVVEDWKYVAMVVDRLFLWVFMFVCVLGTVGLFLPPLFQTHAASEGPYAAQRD

[9] = [3H]-naloxone sites, rat forebrain

CN[C@H]1CC[C@@H](c2ccc(Cl)c(Cl)c2)c2ccccc21 [sertraline, sertraline HCl, reference compound]
immobile time vs vehicle (Sprague-Dawley rats [1]; 20 mg/kg s.c.): significantly reduced immobile time

2-ethylidene-1,5,dimethyl-3,3-diphenylpyrrolidine perchlorate [EDDP]
fold lower affinity than methadone [2, 9]: ~ 83 fold | fraction of binding sites competed for [2, 9]: nearly all of the binding sites | open field locomotor activity (Sprague-Dawley rats [3]; 10mg/kg s.c.): neither EDDP nor EMDP significantly altered open field locomotor activity | marbles buried vs vehicle ([4]; 5 mg/kg i.p.): buried significantly fewer marbles | marbles buried vs vehicle ([4]; 10 mg/kg i.p.): did not reach statistical significance | immobile time vs vehicle (Sprague-Dawley rats [1]; 10 mg/kg s.c.): without effect | duration of immobility vs vehicle ([5]; mouse, 1, 5, or 10 mg/kg i.p.): did not produce a significant effect on duration of immobility | Straub tail effects (Straub tail observation): failed to observe any Straub tail effects | block of rat α3β4 nAChR channels (rat α3β4 nAChRs): potently block | analgesia in the tail-flick assay [6]: neither compound produces analgesia

CNC1(C)C2CCC(C2)C1(C)C (centres unmarked) [Mecamylamine, Mecamylamine HCl]
immobile time vs vehicle (Sprague-Dawley rats [1]; 5 mg/kg s.c.): reduced immobile time | onset of ptosis after injection (Sprague-Dawley rats [7]; 5 mg/kg): ≤ 15 min | ptosis observed during forced swim tests (Sprague-Dawley rats [7]; 5 mg/kg): obvious ptosis | ptosis over 3h observation (Sprague-Dawley rats [7]; 5 mg/kg, significant at 30 and 45 min, not at 3 h): produced ptosis in a time-dependent manner

CCC1=NC(C)CC1(c1ccccc1)c1ccccc1.Cl (centres unmarked) [EMDP, 2-ethyl-5-methyl-3,3,-diphenyl-1-pyrroline hydrochloride]
Ki ([2]; 2 nM [3H]-naloxone, rat forebrain, single-site fit): 21 µM | fold lower affinity than methadone [2, 9]: 1900 fold and ~ 1900 fold | sites competed for ([2]; even at a concentration of 100 μM): 60% | open field locomotor activity (Sprague-Dawley rats [3]; 5mg/kg s.c.): neither EDDP nor EMDP significantly altered open field locomotor activity | overall locomotor activity [8]: did not significantly affect overall locomotor activity | marbles buried vs vehicle ([4]; 1 mg/kg i.p.): not at the 1 mg/kg dose | marbles buried vs vehicle ([4]; 5 mg/kg i.p.): buried significantly fewer marbles | marbles buried vs vehicle ([4]; 10 mg/kg i.p.): buried significantly fewer marbles | immobile time vs vehicle (Sprague-Dawley rats [1]; 10 mg/kg s.c.): reduced immobile time | immobile time vs vehicle (Sprague-Dawley rats [1]; 20 mg/kg s.c.): reduced immobile time | immobility time vs vehicle ([5]; 5 mg/kg i.p.): did not affect immobility time | immobility time vs vehicle ([5]; 10 mg/kg i.p.): significantly reduced it | ptosis over 3h observation (Sprague-Dawley rats [7]; 20 mg/kg): ptosis was not apparent at any time | ptosis observed during forced swim tests (Sprague-Dawley rats [7]; 10 and 20 mg/kg): did not produce ptosis | Straub tail effects (Straub tail observation): failed to observe any Straub tail effects | potency relative to mecamylamine in blocking rat α3β4 nAChRs (rat α3β4 nAChRs; ref Xiao et al): only one-sixth as potent | block of rat α3β4 nAChR channels (rat α3β4 nAChRs): potently block | analgesia in the tail-flick assay [6]: neither compound produces analgesia | potency relative to mecamylamine in blocking human α3β4 nAChRs (human α3β4 nAChRs): only half as potent as mecamylamine

CNC1=Nc2ccc(Cl)cc2C(c2ccccc2)=[N+]([O-])C1 [CDP, chlordiazepoxide HCl, reference compound]
marbles buried vs vehicle ([4]; 10 mg/kg i.p.): buried significantly fewer marbles
